{"source": "paper PMC4823954", "about": "“From fighting depression to conquering tumors: a novel tricyclic thiazepine compound as a tubulin polymerization inhibitor” (Cell Death & Disease, 2016)", "assay_in_all_cases": "KINOMEscan", "assay_type_in_all_cases": "binding", "conditions_in_all_cases": "read-out: % Ctrl", "key": {"NEK5": {"target": "T1, NEK5 (Homo sapiens, UniProt Q6P3R8)", "T1 construct": "purchased DiscoveRx KINOMEscan", "protocol": "(§1) The binding assay for 442 non-mutant kinases was performed using KINOMEscan (DiscoveRx Corporation, Fremont, CA, USA) as reported previously.[58], [59] TBPT was screened at concentrations of 5 and 10 μM to identify the affected kinases. KINOMEscan is based on a competition reaction that quantitatively measures the ability of a test compound to compete with an active site-directed ligand for binding to the kinase active site. […] After the assay plates were incubated with shaking for 1 h, the liganded beads were washed with washing buffer (1 × PBS and 0.05% Tween 20). Then, the beads were re-suspended in elution buffer (1 × PBS, 0.05% Tween 20, and 0.5 μM ligand) and incubated with shaking for 30 min. The kinase concentration in the eluates was measured via qPCR. The results are represented as ‘%Ctrl', which was calculated using the following formula: (test compound signal–positive control signal)/(DMSO signal–positive control signal) × 100%. A lower % Ctrl indicates stronger binding to the kinase active site."}, "TGFBR1": {"target": "T2, TGFBR1 (Homo sapiens, UniProt P36897)", "T2 construct": "purchased DiscoveRx KINOMEscan", "T2 sequence (P36897 34-503)": "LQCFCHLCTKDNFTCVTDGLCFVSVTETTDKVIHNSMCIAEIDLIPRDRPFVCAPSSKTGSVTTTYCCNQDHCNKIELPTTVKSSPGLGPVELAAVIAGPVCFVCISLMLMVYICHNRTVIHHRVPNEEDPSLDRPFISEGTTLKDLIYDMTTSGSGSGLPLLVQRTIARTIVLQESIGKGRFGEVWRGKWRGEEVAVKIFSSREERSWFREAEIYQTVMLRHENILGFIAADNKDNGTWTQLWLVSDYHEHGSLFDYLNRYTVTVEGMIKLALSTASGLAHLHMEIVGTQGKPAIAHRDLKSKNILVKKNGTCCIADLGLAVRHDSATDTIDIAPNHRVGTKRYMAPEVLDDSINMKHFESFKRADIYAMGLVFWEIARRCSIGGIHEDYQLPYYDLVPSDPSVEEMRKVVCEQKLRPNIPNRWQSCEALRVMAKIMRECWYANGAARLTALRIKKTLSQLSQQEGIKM", "protocol": "as §1"}, "PIP5K2C": {"target": "T3, PIP5K2C (Homo sapiens, UniProt Q8TBX8)", "T3 construct": "purchased DiscoveRx KINOMEscan", "protocol": "as §1"}, "ASK1": {"target": "T4, ASK1 (Homo sapiens, UniProt Q99683)", "T4 construct": "purchased DiscoveRx KINOMEscan", "protocol": "as §1"}, "CDKL1": {"target": "T5, CDKL1 (Homo sapiens, UniProt Q00532)", "T5 construct": "purchased DiscoveRx KINOMEscan", "protocol": "as §1"}, "PIK3CD": {"target": "T6, PIK3CD (Homo sapiens, UniProt O00329)", "T6 construct": "purchased DiscoveRx KINOMEscan", "protocol": "as §1"}, "DLK": {"target": "T7, DLK (Homo sapiens, UniProt Q12852)", "T7 construct": "purchased DiscoveRx KINOMEscan", "protocol": "as §1"}, "RIPK5": {"target": "T8, RIPK5 (Homo sapiens, UniProt Q6XUX3)", "T8 construct": "purchased DiscoveRx KINOMEscan", "protocol": "as §1"}, "TAK1": {"target": "T9, TAK1 (Homo sapiens, UniProt O43318)", "T9 construct": "purchased DiscoveRx KINOMEscan", "protocol": "as §1"}, "AAK1": {"target": "T10, AAK1 (Homo sapiens, UniProt Q2M2I8)", "T10 construct": "purchased DiscoveRx KINOMEscan", "protocol": "as §1"}, "TBK1": {"target": "T11, TBK1 (Homo sapiens, UniProt Q9UHD2)", "T11 construct": "purchased DiscoveRx KINOMEscan", "protocol": "as §1"}, "ICK": {"target": "T12, ICK (Homo sapiens, UniProt Q9UPZ9)", "T12 construct": "purchased DiscoveRx KINOMEscan", "protocol": "as §1"}, "NEK11": {"target": "T13, NEK11 (Homo sapiens, UniProt Q8NG66)", "T13 construct": "purchased DiscoveRx KINOMEscan", "protocol": "as §1"}, "CAMK2D": {"target": "T14, CAMK2D (Homo sapiens, UniProt Q13557)", "T14 construct": "purchased DiscoveRx KINOMEscan", "protocol": "as §1"}, "HIPK4": {"target": "T15, HIPK4 (Homo sapiens, UniProt Q8NE63)", "T15 construct": "purchased DiscoveRx KINOMEscan", "protocol": "as §1"}, "SIK": {"target": "T16, SIK (Homo sapiens, UniProt P57059)", "T16 construct": "purchased DiscoveRx KINOMEscan", "protocol": "as §1"}, "ULK3": {"target": "T17, ULK3 (Homo sapiens, UniProt Q6PHR2)", "T17 construct": "purchased DiscoveRx KINOMEscan", "protocol": "as §1"}, "MKNK2": {"target": "T18, MKNK2 (Homo sapiens, UniProt Q9HBH9)", "T18 construct": "purchased DiscoveRx KINOMEscan", "protocol": "as §1"}, "CSNK1A1": {"target": "T19, CSNK1A1 (Homo sapiens, UniProt P48729)", "T19 construct": "purchased DiscoveRx KINOMEscan", "protocol": "as §1"}, "PIM3": {"target": "T20, PIM3 (Homo sapiens, UniProt Q86V86)", "T20 construct": "purchased DiscoveRx KINOMEscan", "protocol": "as §1"}, "BTK": {"target": "T21, BTK (Homo sapiens, UniProt Q06187)", "T21 construct": "purchased DiscoveRx KINOMEscan", "protocol": "as §1"}, "GSK3B": {"target": "T22, GSK3B (Homo sapiens, UniProt P49841)", "T22 construct": "purchased DiscoveRx KINOMEscan", "protocol": "as §1"}, "JNK2": {"target": "T23, JNK2 (Homo sapiens, UniProt P45984)", "T23 construct": "purchased DiscoveRx KINOMEscan", "protocol": "as §1"}, "[1]": {"target": "T24, ABL1(H396P)-nonphosphorylated (Homo sapiens, UniProt P00519, H396P)", "T24 construct": "purchased DiscoveRx KINOMEscan", "protocol": "as §1"}, "EPHB6": {"target": "T25, EPHB6 (Homo sapiens, UniProt O15197)", "T25 construct": "purchased DiscoveRx KINOMEscan", "T25 sequence (O15197 32-1021)": "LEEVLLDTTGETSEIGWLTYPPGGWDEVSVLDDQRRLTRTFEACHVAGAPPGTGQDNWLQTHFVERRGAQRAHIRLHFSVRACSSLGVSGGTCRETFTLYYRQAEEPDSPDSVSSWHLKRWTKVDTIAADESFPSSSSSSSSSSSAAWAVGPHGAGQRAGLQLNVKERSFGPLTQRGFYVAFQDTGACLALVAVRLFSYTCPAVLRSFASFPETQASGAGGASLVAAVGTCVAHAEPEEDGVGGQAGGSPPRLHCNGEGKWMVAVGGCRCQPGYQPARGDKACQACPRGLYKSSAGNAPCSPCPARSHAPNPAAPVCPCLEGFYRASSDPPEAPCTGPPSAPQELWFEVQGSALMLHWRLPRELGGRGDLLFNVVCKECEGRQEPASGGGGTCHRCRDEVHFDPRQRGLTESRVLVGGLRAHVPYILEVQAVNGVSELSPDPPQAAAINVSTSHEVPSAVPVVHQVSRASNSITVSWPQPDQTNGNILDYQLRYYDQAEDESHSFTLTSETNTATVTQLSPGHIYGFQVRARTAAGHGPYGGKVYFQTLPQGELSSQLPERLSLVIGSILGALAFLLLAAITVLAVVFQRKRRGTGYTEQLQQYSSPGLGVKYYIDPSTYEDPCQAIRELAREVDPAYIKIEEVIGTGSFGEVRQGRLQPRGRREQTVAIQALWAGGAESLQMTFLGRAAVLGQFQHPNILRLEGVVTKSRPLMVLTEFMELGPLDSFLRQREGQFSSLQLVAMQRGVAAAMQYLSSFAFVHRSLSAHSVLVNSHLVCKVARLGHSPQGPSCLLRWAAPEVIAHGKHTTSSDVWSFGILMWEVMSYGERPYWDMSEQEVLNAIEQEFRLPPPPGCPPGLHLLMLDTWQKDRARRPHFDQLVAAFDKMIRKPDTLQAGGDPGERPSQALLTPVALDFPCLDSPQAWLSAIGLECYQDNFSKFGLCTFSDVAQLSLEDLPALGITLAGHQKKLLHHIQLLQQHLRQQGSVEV", "protocol": "as §1"}, "INSR": {"target": "T26, INSR (Homo sapiens, UniProt P06213)", "T26 construct": "purchased DiscoveRx KINOMEscan", "T26 sequence (P06213 28-1382)": "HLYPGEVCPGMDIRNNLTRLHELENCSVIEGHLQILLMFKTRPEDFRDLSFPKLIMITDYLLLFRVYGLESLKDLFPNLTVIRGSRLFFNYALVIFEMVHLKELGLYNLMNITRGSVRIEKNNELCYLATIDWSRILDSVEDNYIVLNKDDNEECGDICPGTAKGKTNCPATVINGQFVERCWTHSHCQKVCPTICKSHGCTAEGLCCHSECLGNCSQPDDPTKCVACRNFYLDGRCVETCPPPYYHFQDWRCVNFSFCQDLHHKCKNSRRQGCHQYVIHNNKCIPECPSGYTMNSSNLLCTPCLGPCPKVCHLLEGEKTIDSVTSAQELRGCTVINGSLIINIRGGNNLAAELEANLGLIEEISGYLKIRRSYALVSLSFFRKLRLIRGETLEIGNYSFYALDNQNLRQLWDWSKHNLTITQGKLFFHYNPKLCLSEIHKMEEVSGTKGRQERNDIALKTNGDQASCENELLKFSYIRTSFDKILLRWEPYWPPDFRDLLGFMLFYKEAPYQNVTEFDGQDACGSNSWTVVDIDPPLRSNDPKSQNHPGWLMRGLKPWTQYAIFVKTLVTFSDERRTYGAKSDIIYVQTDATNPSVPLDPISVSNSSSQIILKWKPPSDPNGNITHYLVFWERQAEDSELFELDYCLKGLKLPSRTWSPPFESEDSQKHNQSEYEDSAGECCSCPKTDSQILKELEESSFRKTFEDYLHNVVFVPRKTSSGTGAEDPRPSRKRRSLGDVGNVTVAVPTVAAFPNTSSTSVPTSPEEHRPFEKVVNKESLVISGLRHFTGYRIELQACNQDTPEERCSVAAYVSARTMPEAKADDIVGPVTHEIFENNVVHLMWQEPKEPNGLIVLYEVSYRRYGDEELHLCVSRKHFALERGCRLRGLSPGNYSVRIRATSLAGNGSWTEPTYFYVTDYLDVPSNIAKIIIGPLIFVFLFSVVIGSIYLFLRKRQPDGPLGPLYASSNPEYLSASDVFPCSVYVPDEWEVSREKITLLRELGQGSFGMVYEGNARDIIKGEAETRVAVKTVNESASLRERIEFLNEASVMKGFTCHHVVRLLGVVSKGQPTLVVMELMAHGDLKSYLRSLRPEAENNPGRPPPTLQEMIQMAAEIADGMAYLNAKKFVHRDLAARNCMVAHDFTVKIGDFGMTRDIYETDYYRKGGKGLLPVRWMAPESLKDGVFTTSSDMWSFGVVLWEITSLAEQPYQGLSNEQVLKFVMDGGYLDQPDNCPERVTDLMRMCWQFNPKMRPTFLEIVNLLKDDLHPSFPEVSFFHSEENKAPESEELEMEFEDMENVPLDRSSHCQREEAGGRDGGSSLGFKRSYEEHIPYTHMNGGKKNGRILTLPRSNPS", "protocol": "as §1"}, "PIK3CG": {"target": "T27, PIK3CG (Homo sapiens, UniProt P48736)", "T27 construct": "purchased DiscoveRx KINOMEscan", "protocol": "as §1"}, "NEK7": {"target": "T28, NEK7 (Homo sapiens, UniProt Q8TDX7)", "T28 construct": "purchased DiscoveRx KINOMEscan", "protocol": "as §1"}, "MTOR": {"target": "T29, MTOR (Homo sapiens, UniProt P42345)", "T29 construct": "purchased DiscoveRx KINOMEscan", "protocol": "as §1"}, "GCN2(Kin.Dom.2,S808G)": {"target": "T30, GCN2(Kin.Dom.2,S808G) (Homo sapiens, UniProt Q9P2K8, S808G)", "T30 construct": "GCN2(Kin.Dom.2,S808G); purchased DiscoveRx KINOMEscan", "T30 sequence (Q9P2K8 590-1001 S808G limits assumed)": "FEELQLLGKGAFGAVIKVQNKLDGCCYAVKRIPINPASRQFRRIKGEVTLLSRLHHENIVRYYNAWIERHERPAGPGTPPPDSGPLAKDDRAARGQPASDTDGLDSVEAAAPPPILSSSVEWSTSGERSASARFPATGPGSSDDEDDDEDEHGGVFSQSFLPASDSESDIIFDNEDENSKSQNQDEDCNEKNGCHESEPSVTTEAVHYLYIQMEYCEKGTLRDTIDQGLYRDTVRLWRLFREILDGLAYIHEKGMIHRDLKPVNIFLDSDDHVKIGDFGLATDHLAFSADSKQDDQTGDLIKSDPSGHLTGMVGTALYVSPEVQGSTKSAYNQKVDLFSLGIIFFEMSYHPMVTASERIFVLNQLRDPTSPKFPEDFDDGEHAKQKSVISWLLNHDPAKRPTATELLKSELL", "protocol": "as §1"}}, "data": [{"smiles": "Cc1ccc(C2=Nc3cccnc3S(=O)(=O)c3ccccc32)cc1", "note": "[TBPT, 6-(p-tolyl)benzo[f] pyrido[2,3-b][1,4] thiazepine 11,11-dioxide]", "values": [{"measurement": "remaining binding at 5 µM", "setting": "NEK5; 5 μM", "result": 100, "unit": "%"}, {"measurement": "remaining binding at 10 µM", "setting": "NEK5; 10 μM", "result": 100, "unit": "%"}, {"measurement": "remaining binding at 5 µM", "setting": "TGFBR1; 5 μM", "result": 100, "unit": "%"}, {"measurement": "remaining binding at 10 µM", "setting": "TGFBR1; 10 μM", "result": 85, "unit": "%"}, {"measurement": "remaining binding at 5 µM", "setting": "PIP5K2C; 5 μM", "result": 100, "unit": "%"}, {"measurement": "remaining binding at 10 µM", "setting": "PIP5K2C; 10 μM", "result": 100, "unit": "%"}, {"measurement": "remaining binding at 5 µM", "setting": "ASK1; 5 μM", "result": 100, "unit": "%"}, {"measurement": "remaining binding at 10 µM", "setting": "ASK1; 10 μM", "result": 100, "unit": "%"}, {"measurement": "remaining binding at 5 µM", "setting": "CDKL1; 5 μM", "result": 94, "unit": "%"}, {"measurement": "remaining binding at 10 µM", "setting": "CDKL1; 10 μM", "result": 88, "unit": "%"}, {"measurement": "remaining binding at 5 µM", "setting": "PIK3CD; 5 μM", "result": 94, "unit": "%"}, {"measurement": "remaining binding at 10 µM", "setting": "PIK3CD; 10 μM", "result": 100, "unit": "%"}, {"measurement": "remaining binding at 5 µM", "setting": "DLK; 5 μM", "result": 88, "unit": "%"}, {"measurement": "remaining binding at 10 µM", "setting": "DLK; 10 μM", "result": 81, "unit": "%"}, {"measurement": "remaining binding at 5 µM", "setting": "RIPK5; 5 μM", "result": 58, "unit": "%"}, {"measurement": "remaining binding at 10 µM", "setting": "RIPK5; 10 μM", "result": 83, "unit": "%"}, {"measurement": "remaining binding at 5 µM", "setting": "TAK1; 5 μM", "result": 87, "unit": "%"}, {"measurement": "remaining binding at 10 µM", "setting": "TAK1; 10 μM", "result": 93, "unit": "%"}, {"measurement": "remaining binding at 5 µM", "setting": "AAK1; 5 μM", "result": 100, "unit": "%"}, {"measurement": "remaining binding at 10 µM", "setting": "AAK1; 10 μM", "result": 89, "unit": "%"}, {"measurement": "remaining binding at 5 µM", "setting": "TBK1; 5 μM", "result": 100, "unit": "%"}, {"measurement": "remaining binding at 10 µM", "setting": "TBK1; 10 μM", "result": 100, "unit": "%"}, {"measurement": "remaining binding at 5 µM", "setting": "ICK; 5 μM", "result": 100, "unit": "%"}, {"measurement": "remaining binding at 10 µM", "setting": "ICK; 10 μM", "result": 100, "unit": "%"}, {"measurement": "remaining binding at 5 µM", "setting": "NEK11; 5 μM", "result": 43, "unit": "%"}, {"measurement": "remaining binding at 10 µM", "setting": "NEK11; 10 μM", "result": 100, "unit": "%"}, {"measurement": "remaining binding at 5 µM", "setting": "CAMK2D; 5 μM", "result": 94, "unit": "%"}, {"measurement": "remaining binding at 10 µM", "setting": "CAMK2D; 10 μM", "result": 100, "unit": "%"}, {"measurement": "remaining binding at 5 µM", "setting": "HIPK4; 5 μM", "result": 91, "unit": "%"}, {"measurement": "remaining binding at 10 µM", "setting": "HIPK4; 10 μM", "result": 100, "unit": "%"}, {"measurement": "remaining binding at 5 µM", "setting": "SIK; 5 μM", "result": 92, "unit": "%"}, {"measurement": "remaining binding at 10 µM", "setting": "SIK; 10 μM", "result": 92, "unit": "%"}, {"measurement": "remaining binding at 5 µM", "setting": "ULK3; 5 μM", "result": 100, "unit": "%"}, {"measurement": "remaining binding at 10 µM", "setting": "ULK3; 10 μM", "result": 100, "unit": "%"}, {"measurement": "remaining binding at 5 µM", "setting": "MKNK2; 5 μM", "result": 100, "unit": "%"}, {"measurement": "remaining binding at 10 µM", "setting": "MKNK2; 10 μM", "result": 96, "unit": "%"}, {"measurement": "remaining binding at 5 µM", "setting": "CSNK1A1; 5 μM", "result": 100, "unit": "%"}, {"measurement": "remaining binding at 10 µM", "setting": "CSNK1A1; 10 μM", "result": 86, "unit": "%"}, {"measurement": "remaining binding at 5 µM", "setting": "PIM3; 5 μM", "result": 96, "unit": "%"}, {"measurement": "remaining binding at 10 µM", "setting": "PIM3; 10 μM", "result": 100, "unit": "%"}, {"measurement": "remaining binding at 5 µM", "setting": "BTK; 5 μM", "result": 91, "unit": "%"}, {"measurement": "remaining binding at 10 µM", "setting": "BTK; 10 μM", "result": 83, "unit": "%"}, {"measurement": "remaining binding at 5 µM", "setting": "GSK3B; 5 μM", "result": 89, "unit": "%"}, {"measurement": "remaining binding at 10 µM", "setting": "GSK3B; 10 μM", "result": 100, "unit": "%"}, {"measurement": "remaining binding at 5 µM", "setting": "JNK2; 5 μM", "result": 99, "unit": "%"}, {"measurement": "remaining binding at 10 µM", "setting": "JNK2; 10 μM", "result": 100, "unit": "%"}, {"measurement": "remaining binding at 5 µM", "setting": "[1]; 5 μM", "result": 62, "unit": "%"}, {"measurement": "remaining binding at 10 µM", "setting": "[1]; 10 μM", "result": 77, "unit": "%"}, {"measurement": "remaining binding at 5 µM", "setting": "EPHB6; 5 μM", "result": 99, "unit": "%"}, {"measurement": "remaining binding at 10 µM", "setting": "EPHB6; 10 μM", "result": 100, "unit": "%"}, {"measurement": "remaining binding at 5 µM", "setting": "INSR; 5 μM", "result": 98, "unit": "%"}, {"measurement": "remaining binding at 10 µM", "setting": "INSR; 10 μM", "result": 84, "unit": "%"}, {"measurement": "remaining binding at 5 µM", "setting": "PIK3CG; 5 μM", "result": 89, "unit": "%"}, {"measurement": "remaining binding at 10 µM", "setting": "PIK3CG; 10 μM", "result": 80, "unit": "%"}, {"measurement": "remaining binding at 5 µM", "setting": "NEK7; 5 μM", "result": 100, "unit": "%"}, {"measurement": "remaining binding at 10 µM", "setting": "NEK7; 10 μM", "result": 89, "unit": "%"}, {"measurement": "remaining binding at 5 µM", "setting": "MTOR; 5 μM", "result": 100, "unit": "%"}, {"measurement": "remaining binding at 10 µM", "setting": "MTOR; 10 μM", "result": 95, "unit": "%"}, {"measurement": "remaining binding at 5 µM", "setting": "GCN2(Kin.Dom.2,S808G); 5 μM", "result": 100, "unit": "%"}, {"measurement": "remaining binding at 10 µM", "setting": "GCN2(Kin.Dom.2,S808G); 10 μM", "result": 100, "unit": "%"}]}]}
